These results are taken from PubChem BioAssay AID248 (DTP/NCI, 2004).

“And” between values parts separate entries of the source, which are not always exact repeats. Identical values can stand only once. Toxic doses and inconclusive results are not listed.

This test concerns L1210 leukemia ip in BDF1 mice, survival T/C. Put plainly: NCI In Vivo Anticancer Drug Screen. Data for tumor model L1210 Leukemia (intraperitoneal) in B6D2F1 (BDF1) mice. Particulars: endpoint: mean survival time, higher = longer survival. Put shortly:
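Mice bearing the transplanted tumor received compound or vehicle. Survival of the treated group was divided by that of the vehicle-treated control group to give the ratio.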

The mark [1] stands for this setting: dose: 100.0 mg/kg/injection, schedule: Q01DX001 (ip), vehicle: saline.
Setting [2] is: dose: 200.0 mg/kg/injection, schedule: Q01DX001 (ip), vehicle: saline.
[3] abbreviates: dose: 400.0 mg/kg/injection, schedule: Q01DX001 (ip), vehicle: saline.
[4] abbreviates: dose: 100.0 mg/kg/injection, schedule: Q01DX001 (ip), vehicle: carboxymethylcellulose (CMC).
Setting [5] is: dose: 100.0 mg/kg/injection, schedule: Q01DX009 (ip), vehicle: saline.
[6] abbreviates: dose: 100.0 mg/kg/injection, schedule: Q04DX003 (ip), vehicle: saline.
The mark [7] stands for this setting: dose: 200.0 mg/kg/injection, schedule: Q01DX001 (ip), vehicle: carboxymethylcellulose (CMC).
Where [8] appears, read: dose: 25.0 mg/kg/injection, schedule: Q01DX009 (ip), vehicle: Klucel (hydroxypropylcellulose) (HPC).
Where [9] appears, read: dose: 50.0 mg/kg/injection, schedule: Q01DX009 (ip), vehicle: Klucel (hydroxypropylcellulose) (HPC).
Where [10] appears, read: dose: 25.0 mg/kg/injection, schedule: Q01DX009 (ip), vehicle: saline.
Where [11] appears, read: dose: 50.0 mg/kg/injection, schedule: Q01DX009 (ip), vehicle: saline.
[12] abbreviates: dose: 150.0 mg/kg/injection, schedule: Q01DX009 (ip), vehicle: saline.

`CCOC(=O)c1c(Cl)nc2ccccc2c1Cl`: the T/C reads like this: under setting [1], 92 % of control; under setting [2], 97 % of control; under setting [3], 94 % of control.
`O=S1(=O)C=CCC1`: the T/C is 100 % of control (dose: 50.0 mg/kg/injection, schedule: Q01DX001 (ip), vehicle: carboxymethylcellulose (CMC)); 94 % of control under setting [4]; 96 % of control under setting [5]; 100 % of control under setting [6]; 103 % of control under setting [7]; 102 % of control (dose: 200.0 mg/kg/injection, schedule: Q01DX009 (ip), vehicle: saline). Besides, the T/C is 94 % of control (dose: 200.0 mg/kg/injection, schedule: Q04DX003 (ip), vehicle: saline) and 100 % of control (dose: 400.0 mg/kg/injection, schedule: Q04DX003 (ip), vehicle: saline).
Regarding `C/C(=N\NC(N)=O)C1CCC(c2ccccc2)CC1` (configuration not stated), the T/C runs as follows: (dose: 100.0 mg/kg/injection, schedule: Q01DX001 (ip), vehicle: Klucel (hydroxypropylcellulose) (HPC)) 103 % of control; (dose: 100.0 mg/kg/injection, schedule: Q01DX009 (ip), vehicle: Klucel (hydroxypropylcellulose) (HPC)) 90 % of control; (dose: 200.0 mg/kg/injection, schedule: Q01DX001 (ip), vehicle: Klucel (hydroxypropylcellulose) (HPC)) 96 % of control; (dose: 200.0 mg/kg/injection, schedule: Q01DX009 (ip), vehicle: Klucel (hydroxypropylcellulose) (HPC)) 86 % of control; (dose: 400.0 mg/kg/injection, schedule: Q01DX001 (ip), vehicle: Klucel (hydroxypropylcellulose) (HPC)) 92 % of control; (dose: 400.0 mg/kg/injection, schedule: Q01DX009 (ip), vehicle: Klucel (hydroxypropylcellulose) (HPC)) 91 % of control.
`CCC(=O)NC(N)=S`: the T/C runs as follows: under setting [8], 96 % of control; under setting [9], 94 % of control.
As to `COC(=O)C1=NN(c2ccccc2)CC1`, the T/C was 98 % of control under setting [1]; 88 % of control (dose: 100.0 mg/kg/injection, schedule: Q04DX003 (ip), vehicle: other); 106 % of control under setting [2]; 94 % of control (dose: 200.0 mg/kg/injection, schedule: Q04DX003 (ip), vehicle: other); 90 % of control under setting [3]; 94 % of control (dose: 400.0 mg/kg/injection, schedule: Q04DX003 (ip), vehicle: other).
For the compound `COC1CC(OC(=O)c2ccc([N+](=O)[O-])cc2)C(OC(=O)c2ccc([N+](=O)[O-])cc2)C(C)O1` (configuration not stated), the T/C is 93 % of control under setting [4]; 102 % of control under setting [7]; 88 % of control (dose: 400.0 mg/kg/injection, schedule: Q01DX001 (ip), vehicle: carboxymethylcellulose (CMC)).
Consider `NCc1cc[n+]([O-])cc1`, for which the T/C (dose: 25.0 mg/kg/injection, schedule: Q04DX002 (ip), vehicle: saline) was 102 % of control; the T/C (dose: 50.0 mg/kg/injection, schedule: Q04DX002 (ip), vehicle: saline) was 102 % of control; the T/C (dose: 100.0 mg/kg/injection, schedule: Q04DX002 (ip), vehicle: saline) is 102 % of control; the T/C (dose: 400.0 mg/kg/injection, schedule: Q04DX002 (ip), vehicle: saline) is 88 % of control.
Turning to `C=C[C+](CCCC)C(=O)[O-]`, the T/C by setting is: under setting [10], 95 % of control; under setting [11], 92 % of control; (dose: 50.0 mg/kg/injection, schedule: Q04DX003 (ip), vehicle: saline) 98 % of control; (dose: 100.0 mg/kg/injection, schedule: Q01DX001 (ip), vehicle: acetone) 96 % of control; under setting [5], 87 % of control; under setting [6], 93 % of control. The T/C by setting is: under setting [12], 101 % of control; (dose: 200.0 mg/kg/injection, schedule: Q01DX001 (ip), vehicle: acetone) 95 % of control; (dose: 225.0 mg/kg/injection, schedule: Q01DX009 (ip), vehicle: saline) 98 % of control.
Turning to `COC(=O)c1cc(C)ccc1C`, the T/C was 101 % of control under setting [1], 98 % of control under setting [2] and 101 % of control under setting [3].
In the case of `CCN(CC)Cc1cc(Nc2c(C)cnc3cc(Cl)ccc23)ccc1O`, the T/C is 94 % of control under setting [10] and 90 % of control under setting [11].
On to `C1=C(/c2ccccc2)CCCCCC/1`, for which the T/C (dose: 37.5 mg/kg/injection, schedule: Q01DX009 (ip), vehicle: saline) is 101 % of control; the T/C (dose: 75.0 mg/kg/injection, schedule: Q01DX001 (ip), vehicle: acetone) is 98 % of control; the T/C (dose: 75.0 mg/kg/injection, schedule: Q01DX009 (ip), vehicle: saline) is 90 % of control; the T/C (dose: 150.0 mg/kg/injection, schedule: Q01DX001 (ip), vehicle: acetone) is 93 % of control; the T/C under setting [12] was 103 % of control; the T/C (dose: 300.0 mg/kg/injection, schedule: Q01DX001 (ip), vehicle: acetone) was 91 % of control.
Turning to `CCCCCCCCCCCCOP(=S)(S)OCCCCCCCCCCCC` (tested in a mixture with another compound), the T/C reads like this: under setting [8], 94 % of control; (dose: 25.0 mg/kg/injection, schedule: Q04DX002 (ip), vehicle: Klucel (hydroxypropylcellulose) (HPC)) 87 % of control; under setting [9], 91 % of control; (dose: 50.0 mg/kg/injection, schedule: Q04DX002 (ip), vehicle: Klucel (hydroxypropylcellulose) (HPC)) 90 % of control; (dose: 100.0 mg/kg/injection, schedule: Q04DX002 (ip), vehicle: Klucel (hydroxypropylcellulose) (HPC)) 99 % of control and 100 % of control.
On to `[Cl][Pt+2][Cl].[NH-]C1CCC1.[NH-]C1CCC1`, for which the T/C is 95 % of control (dose: 1.0 mg/kg/injection, schedule: Q01DX001 (ip), vehicle: saline with Tween-80); 108 % of control (dose: 1.0 mg/kg/injection, schedule: Q01DX009 (ip), vehicle: saline with Tween-80); 98 % of control (dose: 2.0 mg/kg/injection, schedule: Q01DX001 (ip), vehicle: saline with Tween-80); 115 % of control (dose: 2.0 mg/kg/injection, schedule: Q01DX009 (ip), vehicle: saline with Tween-80); 109 % of control (dose: 4.0 mg/kg/injection, schedule: Q01DX001 (ip), vehicle: saline with Tween-80); 110 % of control (dose: 5.0 mg/kg/injection, schedule: Q04DX003 (ip), vehicle: saline). Besides, the T/C was 103 % of control (dose: 6.25 mg/kg/injection, schedule: Q04DX003 (ip), vehicle: Klucel (hydroxypropylcellulose) (HPC)); 116 % of control (dose: 6.25 mg/kg/injection, schedule: Q04DX003 (ip), vehicle: saline with Tween-80); 157 % of control (dose: 8.0 mg/kg/injection, schedule: Q01DX009 (ip), vehicle: saline with Tween-80); 123 % of control (dose: 10.0 mg/kg/injection, schedule: Q04DX003 (ip), vehicle: saline); 106 % of control (dose: 12.5 mg/kg/injection, schedule: Q04DX003 (ip), vehicle: Klucel (hydroxypropylcellulose) (HPC)); 214 % of control (dose: 16.0 mg/kg/injection, schedule: Q01DX009 (ip), vehicle: saline with Tween-80). Besides, the T/C runs as follows: (dose: 25.0 mg/kg/injection, schedule: Q04DX003 (ip), vehicle: Klucel (hydroxypropylcellulose) (HPC)) 110 % of control; (dose: 32.0 mg/kg/injection, schedule: Q01DX001 (ip), vehicle: saline with Tween-80) 154 % of control; (dose: 32.0 mg/kg/injection, schedule: Q01DX009 (ip), vehicle: saline with Tween-80) 95 % of control; (dose: 40.0 mg/kg/injection, schedule: Q04DX003 (ip), vehicle: saline) 152 % of control; (dose: 50.0 mg/kg/injection, schedule: Q04DX003 (ip), vehicle: saline with Tween-80) 195 % of control; (dose: 64.0 mg/kg/injection, schedule: Q01DX001 (ip), vehicle: saline with Tween-80) 118 % of control. Moreover, the T/C is, setting by setting: (dose: 80.0 mg/kg/injection, schedule: Q04DX003 (ip), vehicle: saline) 110 % of control; (dose: 100.0 mg/kg/injection, schedule: Q04DX003 (ip), vehicle: saline with Tween-80) 154 % of control.
